Bridge positions count the residues as written; N and C are the ends. Square brackets hold non-standard residues; d marks the D form. Peptide text beside a SMILES is read from it. * marks the point of attachment. ξ: configuration not given here. Bip = N[C@@H](Cc1ccc(-c2ccccc2)cc1)C(=O)O; Phe(3-Me) = Cc1cccc(C[C@H](N)C(=O)O)c1; Cha = N[C@@H](CC1CCCCC1)C(=O)O; ξH = NC(Cc1c[nH]cn1)C(=O)O; dDab = NCC[C@@H](N)C(=O)O; Carboxymethyl = O=C(O)C*; Orn = NCCC[C@H](N)C(=O)O; Aun = NCCCCCCCCCCC(=O)O; Dab = NCC[C@H](N)C(=O)O; Dap = NC[C@H](N)C(=O)O; AEEA = NCCOCCOCC(=O)O
Target: T1, PD-1/PD-L1 interaction (PE-labeled human PD-L1-Ig binding to Jurkat cell line over-expressing human PD-1) (Homo sapiens, UniProt Q15116)
T1 construct: expressed in transfected cells; host or cells: Jurkat
Assay: Jurkat-PD-1 Cell Binding High-Content Screening Assay (CBA)
Format: cell-based
Settings: Jurkat cell line over-expressing human PD-1; PE-labeled PD-L1-Ig 20 nM final; read-out: Jurkat hPD1-PDL1 IC50
Outline: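 First, compound is added to PD-1-expressing Jurkat cells in serum-containing DMEM and left 2 h at 37° C. Next, PE-conjugated PD-L1-Ig is introduced at 20 nM final concentration for 1 hour. Finally, cells are fixed in 4% paraformaldehyde with Hoechst 33342, washed and imaged.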

T1 sequence (Q15116 25-288): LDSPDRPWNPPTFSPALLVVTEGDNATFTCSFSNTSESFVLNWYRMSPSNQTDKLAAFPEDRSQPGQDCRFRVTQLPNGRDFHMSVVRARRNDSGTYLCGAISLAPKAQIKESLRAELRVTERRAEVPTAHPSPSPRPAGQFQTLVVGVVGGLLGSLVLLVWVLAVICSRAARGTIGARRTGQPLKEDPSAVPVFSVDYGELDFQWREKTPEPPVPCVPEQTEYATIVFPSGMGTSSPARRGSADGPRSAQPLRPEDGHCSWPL

CC(C)C[C@H]1NC(=O)[C@H](CCCN)NC(=O)[C@H](C(C)C)NC(=O)[C@H](Cc2ccc(-c3ccccc3)cc2)NC(=O)[C@H](C(C)C)NC(=O)[C@H](Cc2c[nH]c3ccccc23)NC(=O)[C@H](CC(=O)O)NC(=O)[C@H](Cc2ccc(OCC(=O)O)cc2)NC(=O)[C@H](CN)NC(=O)CSC[C@@H](C(=O)NCCOCCOCC(=O)N[C@H](CCN)C(=O)NCCCCCCCCCCC(=O)O)NC(=O)[C@H]([C@@H](C)O)NC(=O)[C@H](C(C)C)NC(=O)[C@H](CC2CCCCC2)NC(=O)[C@H](Cc2cnc[nH]2)NC1=O [Compound 1129] ({CH2CO}-[Dap]Y(Carboxymethyl)DWV[Bip]V[Orn][dL]H[Cha]VTC[AEEA][dDab][Aun]-OH; thioether N-14)
IC50: 37.4 nM

CC(C)C[C@H]1NC(=O)[C@H](CCCN)NC(=O)[C@H](C(C)C)NC(=O)[C@H](Cc2ccc(-c3ccccc3)cc2)NC(=O)[C@H](C(C)C)NC(=O)[C@H](Cc2c[nH]c3ccccc23)NC(=O)[C@H](CC(=O)O)NC(=O)[C@H](Cc2ccc(OCC(=O)O)cc2)NC(=O)[C@H](CN)NC(=O)CSC[C@@H](C(=O)NCCOCCOCC(=O)N[C@H](CCCCN)C(=O)NCCCCCCCCCCC(=O)O)NC(=O)[C@H]([C@@H](C)O)NC(=O)[C@H](C(C)C)NC(=O)[C@H](CC2CCCCC2)NC(=O)[C@H](Cc2cnc[nH]2)NC1=O [Compound 1131] ({CH2CO}-[Dap]Y(Carboxymethyl)DWV[Bip]V[Orn][dL]H[Cha]VTC[AEEA][dK][Aun]-OH; thioether N-14)
IC50: 14.3 nM

CC(C)C[C@H]1NC(=O)[C@H](CCCN)NC(=O)[C@H](C(C)C)NC(=O)[C@H](Cc2ccc(-c3ccccc3)cc2)NC(=O)[C@H](C(C)C)NC(=O)[C@H](Cc2c[nH]c3ccccc23)NC(=O)[C@H](CC(=O)O)NC(=O)[C@H](Cc2ccc(OCC(=O)O)cc2)NC(=O)[C@H](CN)NC(=O)CSC[C@@H](C(=O)NCCOCCOCC(=O)N[C@H](CC(=O)O)C(=O)NCCCCCCCCCCC(=O)O)NC(=O)[C@H]([C@@H](C)O)NC(=O)[C@H](C(C)C)NC(=O)[C@H](CC2CCCCC2)NC(=O)[C@H](Cc2cnc[nH]2)NC1=O [Compound 1132] ({CH2CO}-[Dap]Y(Carboxymethyl)DWV[Bip]V[Orn][dL]H[Cha]VTC[AEEA][dD][Aun]-OH; thioether N-14)
IC50: 35.9 nM

CC(C)C[C@H]1NC(=O)[C@H](CCCN)NC(=O)[C@H](C(C)C)NC(=O)[C@H](Cc2ccc(-c3ccccc3)cc2)NC(=O)[C@H](C(C)C)NC(=O)[C@H](Cc2c[nH]c3ccccc23)NC(=O)[C@H](CC(=O)O)NC(=O)[C@H](Cc2ccc(OCC(=O)O)cc2)NC(=O)[C@H](CN)NC(=O)CSC[C@@H](C(=O)NCCOCCOCC(=O)N[C@H](CCC(=O)O)C(=O)NCCCCCCCCCCC(=O)O)NC(=O)[C@H]([C@@H](C)O)NC(=O)[C@H](C(C)C)NC(=O)[C@H](CC2CCCCC2)NC(=O)[C@H](Cc2cnc[nH]2)NC1=O [Compound 1133] ({CH2CO}-[Dap]Y(Carboxymethyl)DWV[Bip]V[Orn][dL]H[Cha]VTC[AEEA][dE][Aun]-OH; thioether N-14)
IC50: 30.2 nM

CC(C)C[C@H]1NC(=O)[C@H](CCCN)NC(=O)[C@H](C(C)C)NC(=O)[C@H](Cc2ccc(-c3ccccc3)cc2)NC(=O)[C@H](C(C)C)NC(=O)[C@H](Cc2c[nH]c3ccccc23)NC(=O)[C@H](CC(=O)O)NC(=O)[C@H](Cc2ccc(OCC(=O)O)cc2)NC(=O)[C@H](CN)NC(=O)CSC[C@@H](C(=O)NCCOCCOCC(=O)N[C@H](CO)C(=O)NCCCCCCCCCCC(=O)O)NC(=O)[C@H]([C@@H](C)O)NC(=O)[C@H](C(C)C)NC(=O)[C@H](CC2CCCCC2)NC(=O)[C@H](Cc2cnc[nH]2)NC1=O [Compound 1134] ({CH2CO}-[Dap]Y(Carboxymethyl)DWV[Bip]V[Orn][dL]H[Cha]VTC[AEEA][dS][Aun]-OH; thioether N-14)
IC50: 28.9 nM

CC(C)C[C@H]1NC(=O)[C@H](CCCN)NC(=O)[C@H](C(C)C)NC(=O)[C@H](Cc2ccc(-c3ccccc3)cc2)NC(=O)[C@H](C(C)C)NC(=O)[C@H](Cc2c[nH]c3ccccc23)NC(=O)[C@H](CC(=O)O)NC(=O)[C@H](Cc2ccc(OCC(=O)O)cc2)NC(=O)[C@H](CN)NC(=O)CSC[C@@H](C(=O)NCCOCCOCC(=O)N[C@H](Cc2cnc[nH]2)C(=O)NCCCCCCCCCCC(=O)O)NC(=O)[C@H]([C@@H](C)O)NC(=O)[C@H](C(C)C)NC(=O)[C@H](CC2CCCCC2)NC(=O)[C@H](Cc2cnc[nH]2)NC1=O [Compound 1135] ({CH2CO}-[Dap]Y(Carboxymethyl)DWV[Bip]V[Orn][dL]H[Cha]VTC[AEEA][dH][Aun]-OH; thioether N-14)
IC50: 81.1 nM

CC(C)C[C@H]1NC(=O)[C@H](CCCN)NC(=O)[C@H](C(C)C)NC(=O)[C@H](Cc2ccc(-c3ccccc3)cc2)NC(=O)[C@H](C(C)C)NC(=O)[C@H](Cc2c[nH]c3ccccc23)NC(=O)[C@H](CC(=O)O)NC(=O)[C@H](Cc2ccc(OCC(=O)O)cc2)NC(=O)[C@H](CN)NC(=O)CSC[C@@H](C(=O)NCCOCCOCC(=O)N[C@H](CC(N)=O)C(=O)NCCCCCCCCCCC(=O)O)NC(=O)[C@H]([C@@H](C)O)NC(=O)[C@H](C(C)C)NC(=O)[C@H](CC2CCCCC2)NC(=O)[C@H](Cc2cnc[nH]2)NC1=O [Compound 1136] ({CH2CO}-[Dap]Y(Carboxymethyl)DWV[Bip]V[Orn][dL]H[Cha]VTC[AEEA][dN][Aun]-OH; thioether N-14)
IC50: 33.7 nM

CC(C)C[C@H]1NC(=O)[C@H](CCCN)NC(=O)[C@H](C(C)C)NC(=O)[C@H](Cc2ccc(-c3ccccc3)cc2)NC(=O)[C@H](C(C)C)NC(=O)[C@H](Cc2c[nH]c3ccccc23)NC(=O)[C@H](CC(=O)O)NC(=O)[C@H](Cc2ccc(OCC(=O)O)cc2)NC(=O)[C@H](CN)NC(=O)CSC[C@@H](C(=O)NCCOCCOCC(=O)NC(Cc2cnc[nH]2)C(=O)NCCCCCCCCCCC(=O)O)NC(=O)[C@H]([C@@H](C)O)NC(=O)[C@H](C(C)C)NC(=O)[C@H](CC2CCCCC2)NC(=O)[C@H](Cc2cnc[nH]2)NC1=O (stereo partly drawn) [Compound 1137] ({CH2CO}-[Dap]Y(Carboxymethyl)DWV[Bip]V[Orn][dL]H[Cha]VTC[AEEA][ξH][Aun]-OH; thioether N-14)
IC50: 18.6 nM

Cc1cccc(C[C@@H]2NC(=O)[C@H](CC(=O)O)NC(=O)[C@H](Cc3ccc(OCC(=O)O)cc3)NC(=O)[C@H](Cc3ccc(OCC(=O)O)cc3)NC(=O)CSC[C@@H](C(=O)NCC(=O)N[C@@H](CCC(=O)O)C(=O)NCC(=O)NCCCCCCCCCCC(=O)O)NC(=O)[C@H](CO)NC(=O)[C@H](C(C)C)NC(=O)[C@H](CC(C)C)NC(=O)[C@H](CCN)NC(=O)[C@@H](CC(C)C)NC(=O)[C@H](CCCN)NC(=O)[C@H](C(C)C)NC(=O)[C@H](Cc3ccc(-c4ccccc4)cc3)NC(=O)[C@H](CC(C)C)NC2=O)c1 [Compound 1138] ({CH2CO}-Y(Carboxymethyl)Y(Carboxymethyl)D[Phe(3-Me)]L[Bip]V[Orn][dL][Dab]LVSCGEG[Aun]-OH; thioether N-14)
IC50: 18.9 nM

Cc1cccc(C[C@@H]2NC(=O)[C@H](CC(=O)O)NC(=O)[C@H](Cc3ccc(OCC(=O)O)cc3)NC(=O)[C@H](Cc3ccc(OCC(=O)O)cc3)NC(=O)CSC[C@@H](C(=O)NCC(=O)N[C@@H](CCC(=O)O)C(=O)NCCCCCCCCCCC(=O)O)NC(=O)[C@H](CO)NC(=O)[C@H](C(C)C)NC(=O)[C@H](CC(C)C)NC(=O)[C@H](CCN)NC(=O)[C@@H](CC(C)C)NC(=O)[C@H](CCCN)NC(=O)[C@H](C(C)C)NC(=O)[C@H](Cc3ccc(-c4ccccc4)cc3)NC(=O)[C@H](CC(C)C)NC2=O)c1 [Compound 1139] ({CH2CO}-Y(Carboxymethyl)Y(Carboxymethyl)D[Phe(3-Me)]L[Bip]V[Orn][dL][Dab]LVSCGE[Aun]-OH; thioether N-14)
IC50: 11.3 nM

Cc1cccc(C[C@@H]2NC(=O)[C@H](CC(=O)O)NC(=O)[C@H](Cc3ccc(OCC(=O)O)cc3)NC(=O)[C@H](Cc3ccc(OCC(=O)O)cc3)NC(=O)CSC[C@@H](C(=O)N[C@@H](CCCN)C(=O)NCCCCCCCCCCC(=O)O)NC(=O)[C@H](CO)NC(=O)[C@H](C(C)C)NC(=O)[C@H](CC(C)C)NC(=O)[C@H](CCN)NC(=O)[C@@H](CC(C)C)NC(=O)[C@H](CCCN)NC(=O)[C@H](C(C)C)NC(=O)[C@H](Cc3ccc(-c4ccccc4)cc3)NC(=O)[C@@H](CC(C)C)NC2=O)c1 [Compound 1141] ({CH2CO}-Y(Carboxymethyl)Y(Carboxymethyl)D[Phe(3-Me)][dL][Bip]V[Orn][dL][Dab]LVSC[Orn][Aun]-OH; thioether N-14)
IC50: 41 nM

Cc1cccc(C[C@@H]2NC(=O)[C@H](CC(=O)O)NC(=O)[C@H](Cc3ccc(OCC(=O)O)cc3)NC(=O)[C@H](Cc3ccc(OCC(=O)O)cc3)NC(=O)CSC[C@@H](C(=O)N[C@@H](CCCCN)C(=O)NCCCCCCCCCCC(=O)O)NC(=O)[C@H](CO)NC(=O)[C@H](C(C)C)NC(=O)[C@H](CC(C)C)NC(=O)[C@H](CCN)NC(=O)[C@@H](CC(C)C)NC(=O)[C@H](CCCN)NC(=O)[C@H](C(C)C)NC(=O)[C@H](Cc3ccc(-c4ccccc4)cc3)NC(=O)[C@@H](CC(C)C)NC2=O)c1 [Compound 1142] ({CH2CO}-Y(Carboxymethyl)Y(Carboxymethyl)D[Phe(3-Me)][dL][Bip]V[Orn][dL][Dab]LVSCK[Aun]-OH; thioether N-14)
IC50: 54.9 nM

Cc1cccc(C[C@@H]2NC(=O)[C@H](CC(=O)O)NC(=O)[C@H](Cc3ccc(OCC(=O)O)cc3)NC(=O)[C@H](Cc3ccc(OCC(=O)O)cc3)NC(=O)CSC[C@@H](C(=O)N[C@H](CCN)C(=O)NCCCCCCCCCCC(=O)O)NC(=O)[C@H](CO)NC(=O)[C@H](C(C)C)NC(=O)[C@H](CC(C)C)NC(=O)[C@H](CCN)NC(=O)[C@@H](CC(C)C)NC(=O)[C@H](CCCN)NC(=O)[C@H](C(C)C)NC(=O)[C@H](Cc3ccc(-c4ccccc4)cc3)NC(=O)[C@@H](CC(C)C)NC2=O)c1 [Compound 1145] ({CH2CO}-Y(Carboxymethyl)Y(Carboxymethyl)D[Phe(3-Me)][dL][Bip]V[Orn][dL][Dab]LVSC[dDab][Aun]-OH; thioether N-14)
IC50: 26.1 nM
